According to patent publication US20070110802A1, “Wet granulation process” (priority 2005, published 2007):

Legend:
[1] = pH dependent aqueous solubility of Compound A; format: physicochemical
Procedure: The material was analyzed for hydrate formation.

Procedure for physchem: The pKa of a compound is determined experimentally or it can be calculated, such as with ACDLABS8.0 software.

Cc1c(Cl)cccc1S(=O)(=O)Nc1nc(CCN2CCOCC2=O)cs1 [Compound A, 3-chloro-2-methyl-N-(4-(2-(3-oxo-4-morpholinyl)ethyl)-1,3-thiazol-2-yl)benzenesulfonamide]
pH dependent solubility (FIG. 9) ([1]; solubility versus pH): solubility increases at a pH consistent with the approximate pKa value | solubility ([1]; water, pH 4, aqueous buffer): < 15 µg/mL | pKa (physchem): ~6.6
